The target of assay [1] is GSK3β (Glycogen synthase kinase-3 beta) (Homo sapiens, UniProt P49841). Briefly: Assay 6 - GSK3β assay (ThermoFisher Z-Lyte). To be noted: geometric mean; ATP Conc: 10 μM; read-out: Assay 6 (GSK3β FRET-Z-Lyte CR) GMean IC50 (μM) ATP Conc: 10. The assay is classed as biochemical. The method, boiled down: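 Z-Lyte fluorescence kinase assay with 0.22-0.92 ng GSK3β and 2 μM Ser/Thr 09 peptide in 50 mM HEPES pH 7.5, 10 mM MgCl2, 1 mM EGTA, 0.01% BRIJ-35. Kinase reaction 60 min at room temperature, then 60 min development. 10-point 3-fold titration from 10 μM in 1% DMSO, fitted to a sigmoidal dose-response curve.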

The target in assay [2] is T1, potassium ion channel hERG (human Ether-á-go-go-Related Gene) (Homo sapiens, UniProt Q12809).
T1 construct: expressed in transfected cells; host or cells: Chinese hamster ovary K1 (CHO)
Briefly: Assay 5 - hERG assay (SyncroPatch 384PE patch clamp, CHO cells). The assay is classed as cell-based. To be noted: geometric mean; CHO cells over-expressing hERG; read-out: Assay 5 (hERG Hu CHO IF EPh CR-Syncro) GMean IC50. The procedure, abridged: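 Automated high-throughput patch clamp on CHO-K1 cells overexpressing hERG at room temperature, KF/KCl internal with escin, NMDG-containing external at pH 7.4. Six-point cumulative compound addition, 0.33% DMSO final; wells kept only with seal >30 MΩ, Z′ >0.4 and current >0.2 nA.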

This passage reports IC50 results from US20240217951A1, “PCSK9 INHIBITORS AND METHODS OF USE THEREOF” (AstraZeneca AB, priority 2022, published 2024).

A value given as a limit tells only on which side of the number the result lay.

T1 sequence (Q12809 whole entry): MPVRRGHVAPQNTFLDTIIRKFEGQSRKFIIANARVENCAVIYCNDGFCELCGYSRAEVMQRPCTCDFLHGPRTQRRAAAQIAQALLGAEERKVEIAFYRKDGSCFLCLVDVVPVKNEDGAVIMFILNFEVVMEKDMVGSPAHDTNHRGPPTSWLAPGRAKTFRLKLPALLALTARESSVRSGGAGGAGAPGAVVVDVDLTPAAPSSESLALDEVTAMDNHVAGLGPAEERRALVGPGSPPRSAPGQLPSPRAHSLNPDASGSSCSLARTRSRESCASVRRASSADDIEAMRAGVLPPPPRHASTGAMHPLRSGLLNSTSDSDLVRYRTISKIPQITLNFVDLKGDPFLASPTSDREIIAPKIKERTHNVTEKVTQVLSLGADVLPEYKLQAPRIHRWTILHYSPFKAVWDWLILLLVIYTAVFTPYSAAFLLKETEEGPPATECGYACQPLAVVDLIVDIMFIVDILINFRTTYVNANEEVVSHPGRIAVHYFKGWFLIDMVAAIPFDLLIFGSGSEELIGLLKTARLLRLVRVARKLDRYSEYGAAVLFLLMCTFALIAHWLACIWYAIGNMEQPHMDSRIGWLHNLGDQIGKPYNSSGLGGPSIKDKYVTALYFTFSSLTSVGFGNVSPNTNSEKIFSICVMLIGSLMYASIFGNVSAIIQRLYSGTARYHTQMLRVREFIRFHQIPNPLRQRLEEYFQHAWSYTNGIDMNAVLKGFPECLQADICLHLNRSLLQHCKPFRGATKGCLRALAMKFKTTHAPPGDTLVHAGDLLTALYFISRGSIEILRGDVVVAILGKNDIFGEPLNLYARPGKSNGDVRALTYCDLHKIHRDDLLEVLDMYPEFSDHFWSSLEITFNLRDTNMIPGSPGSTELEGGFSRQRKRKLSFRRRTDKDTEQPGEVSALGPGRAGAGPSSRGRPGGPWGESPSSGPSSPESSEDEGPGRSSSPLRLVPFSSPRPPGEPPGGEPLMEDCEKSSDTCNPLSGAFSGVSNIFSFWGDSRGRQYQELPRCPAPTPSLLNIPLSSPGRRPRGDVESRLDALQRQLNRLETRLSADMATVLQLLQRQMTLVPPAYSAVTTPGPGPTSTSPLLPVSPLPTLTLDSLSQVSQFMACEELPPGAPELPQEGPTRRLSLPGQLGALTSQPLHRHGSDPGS
Chain of GSK3β (Glycogen synthase kinase-3 beta) (P49841 whole entry): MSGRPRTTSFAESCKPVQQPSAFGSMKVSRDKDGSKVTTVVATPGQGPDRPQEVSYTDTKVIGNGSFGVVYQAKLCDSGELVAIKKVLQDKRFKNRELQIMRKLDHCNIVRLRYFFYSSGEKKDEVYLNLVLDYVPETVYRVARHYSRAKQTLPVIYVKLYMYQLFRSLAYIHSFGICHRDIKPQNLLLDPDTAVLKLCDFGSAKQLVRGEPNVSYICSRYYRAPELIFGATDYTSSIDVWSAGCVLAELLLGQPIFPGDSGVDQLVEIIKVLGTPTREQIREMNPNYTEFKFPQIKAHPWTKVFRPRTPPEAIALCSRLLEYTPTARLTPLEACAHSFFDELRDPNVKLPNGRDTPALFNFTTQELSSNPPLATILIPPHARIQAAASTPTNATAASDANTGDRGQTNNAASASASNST

For `Cn1c(=O)n(-c2ccc(N[C@H]3CC[C@H](Nc4cnc(OC(F)F)cn4)C3)nc2)c2ccccc21` [Example 82, 1-(6-(((1S,3S)-3-((5-(Difluoromethoxy)pyrazin-2-yl)amino)cyclopentyl)amino)pyridin-3-yl)-3-methyl-1,3-dihydro-2H-benzo[d]imidazol-2-one], the half-maximal inhibitory concentration (IC50) in assay [1] was greater than 10 µM; in assay [2] it was 5.5 µM.

For `COc1cccn(-c2ccc(N[C@H]3CC[C@H](Nc4cnc(C5CC5)cn4)C3)nc2)c1=O` [Example 106, 6′-(((1S,3S)-3-((5-Cyclopropylpyrazin-2-yl)amino)cyclopentyl)amino)-3-methoxy-2H-[1,3′-bipyridin]-2-one], the results for the IC50 in assay [1] and in assay [2] were greater than 10 µM and greater than 40 µM, respectively.

Turning to `COc1cccn(-c2ccc(N[C@H]3CC[C@H](Nc4cnc(C)cn4)C3)nc2)c1=O` [Example 36, 3-Methoxy-6′-(((1S,3S)-3-((5-methylpyrazin-2-yl)amino)cyclopentyl)amino)-2H-[1,3′-bipyridin]-2-one], the IC50 is greater than 10 µM in assay [1] and greater than 40 µM in assay [2].

Turning to `Cc1cnc(N[C@H]2CC[C@H](Nc3ccc(-n4cccc(Cl)c4=O)cn3)C2)cn1` [Example 47, 3-Chloro-6′-(((1S,3S)-3-((5-methylpyrazin-2-yl)amino)cyclopentyl)amino)-2H-[1,3′-bipyridin]-2-one], the IC50 in assay [1] is greater than 10 µM; in assay [2], greater than 40 µM.

In the case of `COc1ccnn(-c2ccc(N[C@H]3CC[C@H](Nc4cnc(C)cn4)C3)nc2)c1=O` [Example 226, 4-Methoxy-2-(6-(((1S,3S)-3-((5-methylpyrazin-2-yl)amino)cyclopentyl)amino)pyridin-3-yl)pyridazin-3 (2H)-one], the concentration for half-maximal inhibition (IC50) was greater than 10 µM in assay [1] and greater than 40.1 µM in assay [2].

Regarding `Cc1cnc(N[C@H]2CC[C@H](Nc3ccc(-n4c(=O)n(C)c5ccccc54)cn3)C2)cn1` [Example 45, 1-Methyl-3-(6-(((1S,3S)-3-((5-methylpyrazin-2-yl)amino)cyclopentyl)amino)pyridin-3-yl)-1,3-dihydro-2H-benzo[d]imidazol-2-one], the results for the IC50 in assay [1] and in assay [2] were greater than 10 µM and 23.1 µM, respectively.

For the compound `Cc1cnc(N[C@H]2CC[C@H](Nc3ccc(-n4cccc(C#N)c4=O)cn3)C2)cn1` [Example 103, 6′-(((1S,3S)-3-((5-Methylpyrazin-2-yl)amino)cyclopentyl)amino)-2-oxo-2H-[1,3′-bipyridine]-3-carbonitrile], the IC50 in assay [1] was greater than 10 µM; in assay [2] it was greater than 40.1 µM.

Take `O=C(O)c1ccc(=O)n(-c2ccc(N[C@H]3CC[C@H](Nc4cnc(Cl)cn4)C3)nc2)c1` [Example 33, 6′-(((1S,3S)-3-((5-Chloropyrazin-2-yl)amino)cyclopentyl)amino)-2-oxo-2H-[1,3′-bipyridine]-5-carboxylic acid]: the half-inhibitory concentration (IC50) was greater than 10 µM in assay [1] and greater than 40 µM in assay [2].

In the case of `COc1cccn(-c2ccc(N[C@H]3CC[C@H](Nc4cnc(OC(F)F)cn4)C3)nc2)c1=O` [Example 94, 6′-(((1S,3S)-3-((5-(Difluoromethoxy)pyrazin-2-yl)amino)cyclopentyl)amino)-3-methoxy-2H-[1,3′-bipyridin]-2-one], the values for the half-maximal inhibitory concentration (IC50) in assay [1] and in assay [2] were greater than 10 µM and 17.5 µM, respectively.

For `Cc1cccn(-c2ccc(N[C@H]3CC[C@H](Nc4cnc(Cl)cn4)C3)nc2)c1=O` [Example 24, 6′-(((1S,3S)-3-((5-Chloropyrazin-2-yl)amino)cyclopentyl)amino)-3-methyl-2H-[1,3′-bipyridin]-2-one], the IC50 is greater than 10 µM in assay [1] and 20.5 µM in assay [2].

As for `Cc1cnc(N[C@H]2CC[C@H](Nc3ccc(-n4c(=O)n(C)c5cccnc54)cn3)C2)cn1` [Example 42, 1-Methyl-3-(6-(((1S,3S)-3-((5-methylpyrazin-2-yl)amino)cyclopentyl)amino)pyridin-3-yl)-1,3-dihydro-2H-imidazo[4,5-b]pyridin-2-one], the half-maximal inhibitory concentration (IC50) in assay [1] was greater than 10 µM; in assay [2], greater than 40 µM.

`O=c1ccc(-c2ccc(F)cc2)cn1-c1ccc(N[C@H]2CC[C@H](Nc3cnc(Cl)cn3)C2)nc1` [Example 32, 6′-(((1S,3S)-3-((5-Chloropyrazin-2-yl)amino)cyclopentyl)amino)-5-(4-fluorophenyl)-2H-[1,3′-bipyridin]-2-one]: the concentration for half-maximal inhibition (IC50) in assay [1] is greater than 10 µM; in assay [2], 3.5 µM.

As to `Cn1c(=O)n(-c2ccc(N[C@H]3CC[C@H](Nc4cnc(Cl)cn4)C3)nc2)c2ccccc21` [Example 27, 1-(6-(((1S,3S)-3-((5-Chloropyrazin-2-yl)amino)cyclopentyl)amino)pyridin-3-yl)-3-methyl-1,3-dihydro-2H-benzo[d]imidazol-2-one], the half-inhibitory concentration (IC50) was greater than 10 µM in assay [1] and 6.35 µM in assay [2].

In the case of `Cc1cnc(N[C@H]2CC[C@H](Nc3ccc(-n4c(=O)[nH]c5ccccc54)cn3)C2)cn1` [Example 46, 1-(6-(((1S,3S)-3-((5-Methylpyrazin-2-yl)amino)cyclopentyl)amino)pyridin-3-yl)-1,3-dihydro-2H-benzo[d]imidazol-2-one], the IC50 is greater than 10 µM in assay [1] and 33 µM in assay [2].

`O=c1ccc2ccccc2n1-c1ccc(N[C@H]2CC[C@H](Nc3cnc(Cl)cn3)C2)nc1` [Example 35, 1-(6-(((1S,3S)-3-((5-Chloropyrazin-2-yl)amino)cyclopentyl)amino)pyridin-3-yl)quinolin-2 (1H)-one]: the half-maximal inhibitory concentration (IC50) in assay [1] was greater than 10 µM; in assay [2], 4.7 µM.

As for `Cc1cnc(N[C@H]2CC[C@H](Nc3ccc(-n4c(=O)ccc5cccnc54)cn3)C2)cn1` [Example 37, 1-(6-(((1S,3S)-3-((5-Methylpyrazin-2-yl)amino)cyclopentyl)amino)pyridin-3-yl)-1,8-naphthyridin-2(1 H)-one], the IC50 in assay [1] was greater than 10 µM; in assay [2], greater than 40 µM.

Regarding `Cc1cnc(N[C@H]2CC[C@H](Nc3ccc(-n4cccc(C)c4=O)cn3)C2)cn1` [Example 44, 3-Methyl-6′-(((1S,3S)-3-((5-methylpyrazin-2-yl)amino)cyclopentyl)amino)-2H-[1,3′-bipyridin]-2-one], the values for the half-maximal inhibitory concentration (IC50) in assay [1] and in assay [2] were greater than 10 µM and greater than 40 µM, respectively.
